Assay results reported in ChEMBL document CHEMBL1143946, “Docking analyses on human muscarinic receptors: unveiling the subtypes peculiarities in agonists binding” (Bioorg Med Chem, 2008).

Experiments:
Assay in all cases: biochemical
[1] = molecular target: T1, Muscarinic acetylcholine receptor M5 (Homo sapiens, UniProt P08912)
T1 sequence (P08912 whole entry): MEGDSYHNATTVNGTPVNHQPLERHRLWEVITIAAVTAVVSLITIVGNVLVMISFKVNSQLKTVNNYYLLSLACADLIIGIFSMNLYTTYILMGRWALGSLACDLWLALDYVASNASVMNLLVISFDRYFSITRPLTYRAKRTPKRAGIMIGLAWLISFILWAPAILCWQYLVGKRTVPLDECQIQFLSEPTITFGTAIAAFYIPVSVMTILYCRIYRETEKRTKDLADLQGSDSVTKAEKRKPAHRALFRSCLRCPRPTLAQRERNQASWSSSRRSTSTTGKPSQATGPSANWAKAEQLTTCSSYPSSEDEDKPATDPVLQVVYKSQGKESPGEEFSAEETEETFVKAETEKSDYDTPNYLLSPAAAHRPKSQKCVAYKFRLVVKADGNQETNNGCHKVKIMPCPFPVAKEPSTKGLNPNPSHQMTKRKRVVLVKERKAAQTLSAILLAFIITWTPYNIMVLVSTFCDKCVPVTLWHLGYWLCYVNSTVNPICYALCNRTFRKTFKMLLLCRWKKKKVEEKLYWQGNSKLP
Description: Binding affinity to human cloned muscarinic M5 receptor expressed in CHO cells

[2] = molecular target: T2, Muscarinic acetylcholine receptor M2 (Homo sapiens, UniProt P08172)
T2 sequence (P08172 whole entry): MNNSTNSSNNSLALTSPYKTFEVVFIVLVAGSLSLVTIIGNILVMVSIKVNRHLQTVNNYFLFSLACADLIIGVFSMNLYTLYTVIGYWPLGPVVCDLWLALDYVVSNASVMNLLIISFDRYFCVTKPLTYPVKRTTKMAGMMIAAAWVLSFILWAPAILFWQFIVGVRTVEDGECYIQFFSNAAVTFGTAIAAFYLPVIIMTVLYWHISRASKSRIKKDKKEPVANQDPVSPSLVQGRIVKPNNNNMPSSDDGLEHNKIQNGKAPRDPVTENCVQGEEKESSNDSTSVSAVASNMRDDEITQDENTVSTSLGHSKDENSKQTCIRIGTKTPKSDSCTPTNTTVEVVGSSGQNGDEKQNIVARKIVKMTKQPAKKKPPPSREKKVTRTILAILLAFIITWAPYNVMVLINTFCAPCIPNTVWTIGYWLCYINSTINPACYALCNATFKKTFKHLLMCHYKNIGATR

[3] = molecular target: T3, Muscarinic acetylcholine receptor M1 (Homo sapiens, UniProt P11229)
T3 sequence (P11229 whole entry): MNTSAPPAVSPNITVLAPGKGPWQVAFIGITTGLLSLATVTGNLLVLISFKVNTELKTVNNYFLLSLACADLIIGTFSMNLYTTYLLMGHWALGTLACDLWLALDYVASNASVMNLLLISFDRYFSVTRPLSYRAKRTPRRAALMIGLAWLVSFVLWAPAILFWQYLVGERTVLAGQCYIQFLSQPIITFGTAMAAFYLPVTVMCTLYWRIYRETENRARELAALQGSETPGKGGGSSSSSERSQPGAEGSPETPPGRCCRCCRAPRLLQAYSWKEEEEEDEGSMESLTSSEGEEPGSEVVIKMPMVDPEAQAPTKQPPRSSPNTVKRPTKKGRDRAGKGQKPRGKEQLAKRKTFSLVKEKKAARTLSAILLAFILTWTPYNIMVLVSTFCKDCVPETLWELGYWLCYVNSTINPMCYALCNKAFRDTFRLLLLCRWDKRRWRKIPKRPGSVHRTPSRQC

Row | SMILES | Ki [1] [µM] | Ki [2] [µM] | Ki [3] [µM]
1 | C[C@H]1OC[C@@H](C[N+](C)(C)C)O1 | 21.9 | 1.2 | 11
2 | Cc1nccn1CC#CCOc1ccon1 | 0.00617 | 0.00363 | 0.0912
3 | C[C@@H]1O[C@H]([C@H]2CCC[N+]2(C)C)CS1 | 24.5 | 5.25 | 19.1
4 | C[C@@H]1O[C@H]([C@@H]2CCC[N+]2(C)C)CS1 | 23.4 | 3.55 | 14.1
5 | C[C@H]1O[C@@H]([C@H]2CCC[N+]2(C)C)CS1 | 10.7 | 1.41 | 5.89
6 | C[C@H]1OC[C@@H]([C@H]2CCC[N+]2(C)C)O1 | 52.5 | 5.01 | 52.5
7 | C[C@H]1O[C@@H]([C@@H]2CCC[N+]2(C)C)CS1 | 10.2 | 0.676 | 8.32
8 | C[C@H]1COC[C@@H](C[N+](C)(C)C)O1 | 3.72 | 37.2 | 
9 | CC(=O)OC1CC2CCCC1N2C (configuration not stated) |  | 2.75 | 282
10 | C[C@@H]1O[C@H](C[N+](C)(C)C)CS1 | 13.2 | 2.09 | 11
11 | C[C@H]1OC[C@@H]([C@@H]2CCC[N+]2(C)C)O1 | 22.9 | 1.7 | 21.4
12 | C[C@H]1O[C@@H]([C@@H]2CCC[N+]2(C)C)C[S+]1[O-] (some centres not stated) |  | 77.6 | 
13 | CC(=O)OC1CC2CCCC1N2 (configuration not stated) |  | 0.00263 | 21.4
14 | Cc1nccn1CC#CCN1CCCC1=O | 0.0513 | 0.102 | 0.12
15 | C[C@@H]1O[C@H]([C@@H]2CCC[N+]2(C)C)C[S+]1[O-] (stereo in doubt; 9) |  | 9.33 | 
16 | C[C@@H]1O[C@H]([C@@H]2CCC[N+]2(C)C)C[S+]1[O-] (stereo in doubt; 11) | 33.9 | 15.5 | 93.3
17 | C[C@@H]1O[C@H]([C@@H]2CCC[N+]2(C)C)C[S+]1[O-] (stereo in doubt; 12) | 57.5 | 81.3 | 
18 | CO/N=C/C1=CCCN(C)C1 [MILAMELINE] | 3.16 | 1 | 5.62
19 | C[N+](C)(C)CC#CCN1CCCC1=O [OXOTREMORINE METHIODIDE] |  | 0.107 | 20.4
20 | O=C1CCCN1CC#CCN1CCCC1 [OXOTREMORINE] |  | 0.324 | 0.00112
21 | CO/N=C(\C#N)[C@H]1CN2CCC1CC2 [SABCOMELINE] |  | 0.204 | 0.229
